Like-named read-outs stand apart in the source and are kept apart here.
Target: T1, human recombinant COX2 (hCOX2) (UniProt P35354)
T1 sequence (P35354 1-604): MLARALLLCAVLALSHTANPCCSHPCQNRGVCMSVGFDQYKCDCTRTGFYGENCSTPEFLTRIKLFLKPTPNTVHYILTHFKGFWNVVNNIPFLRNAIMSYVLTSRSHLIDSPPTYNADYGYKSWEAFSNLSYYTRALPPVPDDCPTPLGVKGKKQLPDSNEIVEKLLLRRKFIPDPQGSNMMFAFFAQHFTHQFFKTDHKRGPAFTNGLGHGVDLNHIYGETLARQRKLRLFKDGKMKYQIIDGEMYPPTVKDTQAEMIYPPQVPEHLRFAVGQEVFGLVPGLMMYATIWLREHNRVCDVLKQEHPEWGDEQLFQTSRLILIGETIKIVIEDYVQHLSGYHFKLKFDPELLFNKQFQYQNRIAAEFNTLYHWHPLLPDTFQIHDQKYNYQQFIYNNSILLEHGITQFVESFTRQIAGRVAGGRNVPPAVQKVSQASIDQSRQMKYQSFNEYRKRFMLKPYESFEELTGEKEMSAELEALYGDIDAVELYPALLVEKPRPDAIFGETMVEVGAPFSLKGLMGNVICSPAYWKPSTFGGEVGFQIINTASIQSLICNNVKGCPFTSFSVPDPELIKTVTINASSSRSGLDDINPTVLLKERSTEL
Experiment: LCMS-based COX2 enzymatic inhibition assay (PGE2 quantification)
Assay type: biochemical
Set-up: COX2 2 minutes pge2/pge2d4 area ratio Avg; other: 2 minutes; readout pge2/pge2d4 area ratio; average; COX2 2 minutes pge2/pge2d4 area ratio Avg; LLE; average LLE; COX2 2 minutes pge2 area (counts) Avg; readout pge2 area (counts); other: 2 min; "ovine COX2 (oCOX2), human recombinant COX2 (hCOX2)"
Conditions: for IC50: average
Outline: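 Ovine COX-1 (0.1 μg) or human recombinant COX2 (0.2 μg) in 100 mM Tris.HCl pH 8.0 with hematin and epinephrine, preincubated with inhibitor 10 min at 37 °C. Reaction with 5 μM arachidonic acid stopped after 2 min with HCl; PGE2 quantified by LC-MS-MS. IC50 from 12 concentrations in triplicate.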

[1] = read-out: COX2 2 minutes pge2/pge2d4 area ratio Avg. IC50 (microM), 2 minutes, readout pge2/pge2d4 area ratio
[2] = 2 minutes, readout pge2/pge2d4 area ratio, average LLE
[3] = 2 minutes, readout pge2 area (counts), average LLE
[4] = 2 minutes, readout pge2/pge2d4 area ratio, read-out: COX2 2 minutes pge2/pge2d4 area ratio Avg. IC50
[5] = 2 minutes, readout pge2 area (counts), read-out: COX2 2 minutes pge2 area (counts) Avg. IC50

| Structure (SMILES) | IC50 [1] | COX2 2 minutes pge2/pge2d4 area ratio Avg. LLE [2] | COX2 2 minutes pge2 area (counts) Avg. LLE [3] | IC50 [4] | IC50 [5] | COX2 10 minutes pge2 area (counts) Avg. LLE (10 minutes, readout pge2 area (counts), average LLE) | IC50 (10 minutes, readout pge2 area (counts), read-out: COX2 10 minutes pge2 area (counts) Avg. IC50) |
| --- | --- | --- | --- | --- | --- | --- | --- |
| CS(=O)(=O)c1ccc(-n2ccc3ccc(NC(=O)c4cccs4)nc32)cc1 [Compound 311] | 5.2 µM |  |  |  |  |  |  |
| CS(=O)(=O)c1ccc(-c2cncc(OCc3nccs3)c2)cc1 [Compound 289] | 5.2 µM | 2.234 | 2.234 |  |  |  |  |
| CS(=O)(=O)c1ccc(-c2cnc(C(=O)O)c(NCc3cccs3)n2)cc1 [Compound 261] |  | 4.063 | 4.034 | 4.55 µM |  |  |  |
| CS(=O)(=O)c1ccc(-c2cc(OCc3ccco3)cnn2)cc1 [Compound 323] | 5.2 µM |  |  |  |  |  |  |
| CC(C)CN(C)c1cncc(-c2ccc(S(C)(=O)=O)cc2)n1 [Compound 243] |  | 3.642 | 3.739 | 3.12 µM | 2.31 µM |  |  |
| CS(=O)(=O)c1ccc(-c2cccc(NCc3ccoc3)n2)cn1 [Compound 113] |  | 4.956 | 4.897 | 0.103 µM | 0.122 µM |  |  |
| CS(=O)(=O)c1ccc(-c2nc(NCc3cccs3)no2)cc1 [Compound 327] | 5.2 µM |  |  |  |  |  |  |
| C[C@@H](Oc1cncc(-c2ccc(S(C)(=O)=O)cc2)n1)c1cccs1 (single isomer, unassigned) [Compound 249] |  | 2.526 | 2.379 | 3.44 µM | 4.08 µM |  |  |
| COc1nc(NCc2cccs2)cc(-c2ccc(S(C)(=O)=O)cc2)n1 [Compound 156] |  | 3.208 | 3.204 | 0.332 µM | 0.327 µM | 4.189 | 0.0355 µM |

From US20220348590A1, “CYCLOOXYGENASE-2 INHIBITORS AND USES THEREOF” (The Board Institute, Inc., priority 2019, published 2022)
